{"source": "ChEMBL document CHEMBL1201862", "about": "“PubChem BioAssay data set” (2004)", "key": {"[1]": {"target": "Sphingosine 1-phosphate receptor 2 (Homo sapiens, UniProt O95136)", "assay": "Dose Response Cell Based Assay for Agonists of the S1P2 Receptor. [Related pubchem assays: 729, 736, 843 ]", "type": "functional"}, "[2]": {"target": "Voltage-dependent T-type calcium channel subunit alpha-1H (Homo sapiens, UniProt O95180)", "sequence (O95180 whole entry)": "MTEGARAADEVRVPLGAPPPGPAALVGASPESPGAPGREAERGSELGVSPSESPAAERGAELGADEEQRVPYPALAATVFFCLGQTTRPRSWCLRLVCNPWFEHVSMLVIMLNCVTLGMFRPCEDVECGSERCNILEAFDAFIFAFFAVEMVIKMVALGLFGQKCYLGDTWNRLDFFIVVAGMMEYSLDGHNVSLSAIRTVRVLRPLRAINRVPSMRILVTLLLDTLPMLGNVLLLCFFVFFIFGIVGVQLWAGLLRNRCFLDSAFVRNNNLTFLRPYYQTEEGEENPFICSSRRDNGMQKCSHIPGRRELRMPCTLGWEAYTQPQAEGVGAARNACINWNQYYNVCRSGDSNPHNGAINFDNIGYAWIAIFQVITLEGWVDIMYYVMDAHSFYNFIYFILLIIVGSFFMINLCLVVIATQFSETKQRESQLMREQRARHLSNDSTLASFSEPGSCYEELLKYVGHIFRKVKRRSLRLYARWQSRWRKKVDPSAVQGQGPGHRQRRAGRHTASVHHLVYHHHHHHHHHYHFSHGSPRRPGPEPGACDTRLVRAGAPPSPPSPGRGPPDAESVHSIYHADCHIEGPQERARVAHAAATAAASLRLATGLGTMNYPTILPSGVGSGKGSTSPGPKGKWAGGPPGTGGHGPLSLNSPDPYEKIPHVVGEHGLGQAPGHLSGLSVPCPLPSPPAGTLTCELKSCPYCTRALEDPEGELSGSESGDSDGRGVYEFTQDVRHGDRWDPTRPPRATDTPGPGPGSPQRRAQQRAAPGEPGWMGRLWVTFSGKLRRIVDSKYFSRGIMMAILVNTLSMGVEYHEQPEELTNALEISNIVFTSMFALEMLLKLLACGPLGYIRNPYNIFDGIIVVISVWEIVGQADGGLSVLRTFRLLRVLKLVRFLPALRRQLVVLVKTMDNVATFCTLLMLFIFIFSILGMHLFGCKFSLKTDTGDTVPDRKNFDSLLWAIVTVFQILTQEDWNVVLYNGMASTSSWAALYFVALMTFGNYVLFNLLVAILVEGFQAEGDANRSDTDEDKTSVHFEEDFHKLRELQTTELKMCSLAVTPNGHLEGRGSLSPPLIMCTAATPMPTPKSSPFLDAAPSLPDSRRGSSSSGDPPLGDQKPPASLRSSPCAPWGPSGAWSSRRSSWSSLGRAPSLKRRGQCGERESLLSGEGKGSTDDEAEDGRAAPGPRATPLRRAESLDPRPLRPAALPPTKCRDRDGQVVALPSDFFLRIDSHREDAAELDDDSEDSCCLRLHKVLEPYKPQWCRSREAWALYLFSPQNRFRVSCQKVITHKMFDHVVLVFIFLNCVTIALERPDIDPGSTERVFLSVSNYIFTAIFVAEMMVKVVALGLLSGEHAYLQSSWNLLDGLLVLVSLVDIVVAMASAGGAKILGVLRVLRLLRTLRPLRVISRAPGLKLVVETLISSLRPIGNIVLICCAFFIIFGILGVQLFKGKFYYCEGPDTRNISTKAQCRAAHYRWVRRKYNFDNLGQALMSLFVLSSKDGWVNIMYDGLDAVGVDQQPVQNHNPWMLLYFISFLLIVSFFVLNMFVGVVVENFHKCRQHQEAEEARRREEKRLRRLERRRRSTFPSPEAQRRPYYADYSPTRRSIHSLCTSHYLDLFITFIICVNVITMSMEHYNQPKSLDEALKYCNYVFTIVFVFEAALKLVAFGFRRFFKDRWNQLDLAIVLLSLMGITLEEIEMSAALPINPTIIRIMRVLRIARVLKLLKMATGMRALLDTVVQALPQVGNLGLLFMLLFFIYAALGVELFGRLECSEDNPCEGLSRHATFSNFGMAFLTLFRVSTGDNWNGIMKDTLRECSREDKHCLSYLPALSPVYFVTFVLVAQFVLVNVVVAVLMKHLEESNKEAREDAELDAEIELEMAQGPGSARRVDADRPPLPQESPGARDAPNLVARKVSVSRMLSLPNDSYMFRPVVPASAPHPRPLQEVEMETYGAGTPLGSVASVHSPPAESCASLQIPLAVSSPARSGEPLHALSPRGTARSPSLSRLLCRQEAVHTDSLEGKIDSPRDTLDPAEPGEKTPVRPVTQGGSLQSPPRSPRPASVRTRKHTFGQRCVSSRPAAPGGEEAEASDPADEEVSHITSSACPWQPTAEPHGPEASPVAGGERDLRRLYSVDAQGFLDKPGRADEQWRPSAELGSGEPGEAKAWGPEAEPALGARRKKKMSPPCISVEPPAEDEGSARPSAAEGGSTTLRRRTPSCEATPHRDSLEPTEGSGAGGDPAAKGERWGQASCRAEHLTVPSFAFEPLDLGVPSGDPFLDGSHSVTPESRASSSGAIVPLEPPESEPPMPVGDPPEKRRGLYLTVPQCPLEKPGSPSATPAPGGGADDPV", "type": "functional"}, "[3]": {"target": "T1, Short transient receptor potential channel 4 (Mus musculus, UniProt Q9QUQ5)", "T1 sequence (Q9QUQ5 whole entry)": "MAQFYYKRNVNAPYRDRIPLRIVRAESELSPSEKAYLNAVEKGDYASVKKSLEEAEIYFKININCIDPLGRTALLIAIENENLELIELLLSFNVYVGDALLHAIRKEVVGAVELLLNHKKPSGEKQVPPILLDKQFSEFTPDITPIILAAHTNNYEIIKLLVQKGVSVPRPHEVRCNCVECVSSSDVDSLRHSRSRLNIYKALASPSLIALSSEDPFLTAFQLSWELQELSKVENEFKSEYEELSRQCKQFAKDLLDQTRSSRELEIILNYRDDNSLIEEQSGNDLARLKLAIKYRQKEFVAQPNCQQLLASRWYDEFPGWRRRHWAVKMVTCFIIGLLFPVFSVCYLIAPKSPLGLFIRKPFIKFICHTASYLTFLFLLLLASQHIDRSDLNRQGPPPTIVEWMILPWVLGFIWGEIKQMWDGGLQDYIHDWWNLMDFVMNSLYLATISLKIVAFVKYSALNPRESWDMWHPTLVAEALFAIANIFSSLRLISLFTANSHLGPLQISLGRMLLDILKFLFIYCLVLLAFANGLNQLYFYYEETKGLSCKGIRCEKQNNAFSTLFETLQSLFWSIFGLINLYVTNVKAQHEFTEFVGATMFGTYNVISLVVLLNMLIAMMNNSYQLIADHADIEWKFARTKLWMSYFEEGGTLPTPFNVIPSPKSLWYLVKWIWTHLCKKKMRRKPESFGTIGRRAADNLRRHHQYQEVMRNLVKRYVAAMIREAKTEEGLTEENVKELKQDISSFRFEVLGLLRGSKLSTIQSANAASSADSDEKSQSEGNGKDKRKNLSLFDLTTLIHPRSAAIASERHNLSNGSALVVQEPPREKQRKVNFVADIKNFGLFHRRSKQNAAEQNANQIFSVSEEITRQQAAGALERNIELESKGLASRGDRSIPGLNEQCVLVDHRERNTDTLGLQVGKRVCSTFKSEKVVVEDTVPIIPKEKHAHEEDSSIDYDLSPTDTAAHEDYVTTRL", "assay": "block of DAMGO-driven TRPC4 calcium entry – cell-based, HEK293 TRPC4/mu-opioid, Fluo-4 calcium, dose response (AID 434942)", "type": "functional"}, "[4]": {"assay": "viability loss in Vero cells – cytotoxicity control for Vif-APOBEC3G degradation inhibitor project, dose response (AID 1117358)", "type": "functional", "conditions": "Vero"}, "[5]": {"target": "T2, RNA-binding protein pos-1 (Caenorhabditis elegans, UniProt G5EF15)", "T2 sequence (G5EF15 whole entry)": "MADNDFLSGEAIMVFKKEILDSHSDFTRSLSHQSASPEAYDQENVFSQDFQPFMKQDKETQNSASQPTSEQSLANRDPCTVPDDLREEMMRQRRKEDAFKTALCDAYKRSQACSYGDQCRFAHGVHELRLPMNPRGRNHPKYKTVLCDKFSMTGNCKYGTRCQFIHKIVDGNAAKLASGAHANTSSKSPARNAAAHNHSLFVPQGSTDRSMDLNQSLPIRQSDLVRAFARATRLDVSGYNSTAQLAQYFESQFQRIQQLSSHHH", "assay": "disruptors of C. elegans POS-1 RNA interaction – biochemical, fluorescence polarization, dose response (AID 1964);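 further: purified POS-1 fused to maltose binding protein made in E. coli; potency of compounds blocking POS-1 binding to fluorescent RNA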"}, "[6]": {"target": "T3, Zinc finger protein mex-5 (Caenorhabditis elegans, UniProt Q9XUB2)", "T3 sequence (Q9XUB2 whole entry)": "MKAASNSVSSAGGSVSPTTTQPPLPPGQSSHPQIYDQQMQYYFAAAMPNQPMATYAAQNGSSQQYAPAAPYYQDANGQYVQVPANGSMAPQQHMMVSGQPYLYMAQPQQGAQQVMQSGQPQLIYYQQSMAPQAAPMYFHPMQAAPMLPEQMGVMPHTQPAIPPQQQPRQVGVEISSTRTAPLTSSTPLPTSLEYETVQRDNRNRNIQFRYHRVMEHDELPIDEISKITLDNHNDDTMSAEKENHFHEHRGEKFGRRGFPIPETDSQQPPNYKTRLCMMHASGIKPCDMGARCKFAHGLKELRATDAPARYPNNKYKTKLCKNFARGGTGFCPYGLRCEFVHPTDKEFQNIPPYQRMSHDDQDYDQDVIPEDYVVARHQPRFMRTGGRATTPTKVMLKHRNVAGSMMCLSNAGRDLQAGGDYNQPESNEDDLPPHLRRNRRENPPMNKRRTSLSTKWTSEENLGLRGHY", "assay": "potency of MEX-5 RNA-binding blockers – biochemical, C. elegans, fluorescence polarization, dose response (AID 1960)"}, "[7]": {"assay": "M. tuberculosis H37Rv growth inhibitors, H37Rv strain (AID 1626)", "type": "functional"}, "Estrogen receptor": {"target": "Estrogen receptor (Homo sapiens, UniProt P03372)", "sequence (P03372 whole entry)": "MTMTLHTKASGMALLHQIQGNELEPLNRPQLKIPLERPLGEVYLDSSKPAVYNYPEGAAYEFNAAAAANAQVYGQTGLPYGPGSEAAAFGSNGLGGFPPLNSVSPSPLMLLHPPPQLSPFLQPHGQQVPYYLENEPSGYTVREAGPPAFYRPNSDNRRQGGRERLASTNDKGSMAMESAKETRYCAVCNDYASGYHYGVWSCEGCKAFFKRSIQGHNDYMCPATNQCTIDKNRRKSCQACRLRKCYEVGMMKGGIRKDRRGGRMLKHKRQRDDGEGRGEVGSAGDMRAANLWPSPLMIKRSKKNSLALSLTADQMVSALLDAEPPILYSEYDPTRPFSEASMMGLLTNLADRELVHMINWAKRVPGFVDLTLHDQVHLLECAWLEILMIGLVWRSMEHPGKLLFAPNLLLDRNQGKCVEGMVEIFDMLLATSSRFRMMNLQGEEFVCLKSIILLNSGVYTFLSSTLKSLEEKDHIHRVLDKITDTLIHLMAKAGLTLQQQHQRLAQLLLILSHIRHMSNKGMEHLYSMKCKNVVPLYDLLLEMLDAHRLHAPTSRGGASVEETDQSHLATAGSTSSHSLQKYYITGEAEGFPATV"}, "Mucolipin-3": {"target": "Mucolipin-3 (Homo sapiens, UniProt Q8TDD5)", "sequence (Q8TDD5 whole entry)": "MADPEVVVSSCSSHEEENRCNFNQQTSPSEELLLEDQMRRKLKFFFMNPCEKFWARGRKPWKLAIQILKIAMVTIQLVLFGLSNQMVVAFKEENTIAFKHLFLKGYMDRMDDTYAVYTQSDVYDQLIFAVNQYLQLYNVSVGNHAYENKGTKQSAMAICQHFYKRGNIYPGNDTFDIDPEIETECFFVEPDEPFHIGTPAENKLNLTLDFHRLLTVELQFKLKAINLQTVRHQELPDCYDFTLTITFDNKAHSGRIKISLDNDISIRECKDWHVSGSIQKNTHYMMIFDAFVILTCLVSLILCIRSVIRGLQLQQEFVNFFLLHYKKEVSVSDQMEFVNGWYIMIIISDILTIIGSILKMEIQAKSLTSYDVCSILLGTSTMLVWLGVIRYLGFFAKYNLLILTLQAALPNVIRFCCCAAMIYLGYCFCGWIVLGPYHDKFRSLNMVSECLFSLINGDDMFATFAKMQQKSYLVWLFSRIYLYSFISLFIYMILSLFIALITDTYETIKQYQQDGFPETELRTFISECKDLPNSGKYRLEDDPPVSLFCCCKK", "assay": "Dose response cell-based high-throughput screening assay for agonists of the transient receptor potential channel ML3 (TRPML3). [Related pubchem assays: 1526, 1424, 1448 ]", "type": "functional"}, "Ion channel NompC": {"target": "Ion channel NompC (Danio rerio, UniProt Q7T1G6)", "sequence (Q7T1G6 whole entry)": "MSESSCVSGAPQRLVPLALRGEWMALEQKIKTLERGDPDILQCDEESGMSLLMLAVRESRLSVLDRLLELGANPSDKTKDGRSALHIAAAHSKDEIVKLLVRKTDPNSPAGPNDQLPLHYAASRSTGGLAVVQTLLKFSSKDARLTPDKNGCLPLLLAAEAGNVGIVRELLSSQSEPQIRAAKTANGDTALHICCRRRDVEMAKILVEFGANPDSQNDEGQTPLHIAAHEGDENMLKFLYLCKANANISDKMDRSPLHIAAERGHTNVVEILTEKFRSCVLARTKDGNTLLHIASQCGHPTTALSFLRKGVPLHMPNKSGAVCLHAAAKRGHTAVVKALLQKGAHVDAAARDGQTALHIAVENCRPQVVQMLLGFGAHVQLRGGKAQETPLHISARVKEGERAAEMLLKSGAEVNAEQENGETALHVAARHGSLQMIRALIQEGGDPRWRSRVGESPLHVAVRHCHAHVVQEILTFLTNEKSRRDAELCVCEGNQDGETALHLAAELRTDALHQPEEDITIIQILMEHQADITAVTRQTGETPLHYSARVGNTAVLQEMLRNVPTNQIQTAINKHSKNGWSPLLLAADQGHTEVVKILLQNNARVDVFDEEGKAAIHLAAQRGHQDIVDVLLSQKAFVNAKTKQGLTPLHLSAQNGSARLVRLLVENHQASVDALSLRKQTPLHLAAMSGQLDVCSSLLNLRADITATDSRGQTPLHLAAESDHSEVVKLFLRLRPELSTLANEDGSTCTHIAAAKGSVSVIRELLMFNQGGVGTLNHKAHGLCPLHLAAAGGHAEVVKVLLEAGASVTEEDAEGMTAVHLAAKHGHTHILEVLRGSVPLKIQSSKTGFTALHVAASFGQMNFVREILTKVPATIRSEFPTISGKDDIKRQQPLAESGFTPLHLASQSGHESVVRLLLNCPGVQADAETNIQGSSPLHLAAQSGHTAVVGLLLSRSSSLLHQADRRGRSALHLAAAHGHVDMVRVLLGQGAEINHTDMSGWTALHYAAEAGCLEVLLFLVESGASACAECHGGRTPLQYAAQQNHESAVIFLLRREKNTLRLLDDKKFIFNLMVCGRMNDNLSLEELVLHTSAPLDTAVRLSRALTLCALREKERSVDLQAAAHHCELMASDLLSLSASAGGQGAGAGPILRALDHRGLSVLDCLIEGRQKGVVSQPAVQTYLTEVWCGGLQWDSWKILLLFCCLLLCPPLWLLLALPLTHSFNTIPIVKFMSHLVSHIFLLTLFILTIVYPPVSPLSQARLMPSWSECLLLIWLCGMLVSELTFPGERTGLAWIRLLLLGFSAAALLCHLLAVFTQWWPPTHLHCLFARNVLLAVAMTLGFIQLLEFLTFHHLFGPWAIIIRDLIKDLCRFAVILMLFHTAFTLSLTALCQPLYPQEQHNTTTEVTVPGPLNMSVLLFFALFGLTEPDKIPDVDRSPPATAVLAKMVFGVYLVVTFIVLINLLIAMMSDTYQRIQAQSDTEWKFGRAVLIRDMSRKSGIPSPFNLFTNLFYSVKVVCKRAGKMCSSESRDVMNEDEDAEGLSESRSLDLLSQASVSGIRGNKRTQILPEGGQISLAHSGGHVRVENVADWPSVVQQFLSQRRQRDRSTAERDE", "assay": "Fluorescence counterscreen assay for TRPML3 agonists: dose response cell-based high-throughput screening assay to identify agonists of the transient receptor potential channel N1 (TRPN1). [Related pubchem assays: 1526, 1424, 1448 ]", "type": "functional"}, "Estrogen receptor beta": {"target": "Estrogen receptor beta (Homo sapiens, UniProt Q92731)"}}, "note": "Active and inactive are the calls of the source.", "data": [{"smiles": "O=C(Cc1c[nH]c2ccccc12)Nc1nc2ccccc2[nH]1", "values": [{"measurement": "EC50", "setting": "[1]", "value": "> 50 µM (not active)"}, {"measurement": "EC50", "setting": "[2]", "value": "6.91 µM (active)"}]}, {"smiles": "COc1cc(CNCCc2ccc(F)cc2)ccc1OCc1ccc(Cl)nc1", "values": [{"measurement": "EC50", "setting": "[3]", "value": "1.88 µM (active)"}, {"measurement": "CC50", "setting": "[4]", "value": "26.1 µM (active)"}]}, {"smiles": "CCOC(=O)c1ccc(N/C=C2\\CCCCC2=O)cc1", "values": [{"measurement": "EC50", "setting": "[5]", "value": "> 300 µM (not active)"}, {"measurement": "EC50", "setting": "[6]", "value": "> 300 µM (not active)"}, {"measurement": "IC50", "setting": "[7]", "value": "> 100 µM (active)"}]}, {"smiles": "CSc1ccc(S(=O)(=O)Nc2c(C)cccc2C)cc1", "values": [{"measurement": "IC50", "setting": "Estrogen receptor", "value": "> 50 µM (not active)"}]}, {"smiles": "CCn1c2ccccc2c2nnc(SCC(=O)Nc3ccc4c(c3)OCO4)nc21", "values": [{"measurement": "IC50", "setting": "Estrogen receptor", "value": "> 50 µM (not active)"}]}, {"smiles": "Cc1ccccc1OCC(=O)Nc1ccccc1N1CCOCC1", "values": [{"measurement": "EC50", "setting": "Mucolipin-3", "value": "5.08 µM (active)"}, {"measurement": "EC50", "setting": "Ion channel NompC", "value": "> 29.9 µM (not active)"}]}, {"smiles": "Cc1cnc(C(=O)OCC(=O)c2csc(N3CCCCC3)n2)cn1", "values": [{"measurement": "IC50", "setting": "Estrogen receptor beta", "value": "5.81 µM (active)"}]}]}
